# In patent US20250134907A1, “FUSED DIAZEPINES AS AGONISTS OF THE INSULIN-LIKE 3 (INSL3) PEPTIDE RECEPTOR RXFP2 AND METHODS OF USE THEREOF” (The United States of America,as represented by the …, priority 2022, published 2025):
# pEC50: −log10 of the molar value.
# Target: T1, RXFP2 (Homo sapiens, UniProt Q8WXD0)
# T1 construct: expressed in transfected cells
# Experiment: HTRF cAMP assay in HEK293T cells stably expressing RXFP2 (HEK-RXFP2)
# Assay type: cell-based
# Conditions: for % EFF vs. 1 nM INSL3 (a): maximum cAMP response normalized to 1 nM INSL3 response; for % EFF vs. 1 nM INSL3 (b): normalized to 1 nM INSL3 cAMP response; for % EFF vs. 100 nM INSL3 (c): normalized to 100 nM INSL3 cAMP response
# Description: Compound efficacy and EC50 were determined by measuring cAMP induction in vitro. HEK293T cells stably expressing RXFP2 (HEK-RXFP2) produce cAMP when RXFP2 is activated, which can be measured in an antibody-based immunoassay utilizing a fluorescent readout (cAMP Gs HiRange Kit, PerkinElmer, Waltham, MA). HEK-RXFP2 cells were seeded in 96-well plates in serum-free DMEM and incubated overnight at 37° C., 5% CO2. Plates were then treated with a compound titration up to 25 μM or INSL3 control, in the presence of isobutylmethylxanthine phosphodiesterase inhibitor (IBMX) at 200 μM to amplify the cAMP signal, for 1 hour at 37° C., 5% CO2 before being processed as per kit instructions. Table 7 lists the efficacy and EC50 of compounds tested under different experimental conditions. […] In condition (a), 20,000 cells were seeded per well in the 96 well plate, and efficacy was determined by normalizing the maximum compound cAMP response to the 1 nM INSL3 cAMP response (% Efficacy 1 nM INSL3 (a)). In condition (b), 10,000 cells were seeded per well, and compound response was normalized to the 1 nM INSL3 cAMP response (% Efficacy 1 nM INSL3 (b)). In condition (c), 7,500 cells were seeded per well, compound response was normalized to the 100 nM INSL3 cAMP response, and IBMX was omitted (% Efficacy 100 nM INSL3 (c)). A range is given when compounds were tested multiple times. Where compounds were tested under multiple experimental conditions, the EC50 listed for the corresponding condition is marked (a) through (c) to correlate. When EC50 could not be calculated from the dose-response curve, EC50 is listed as not determined (ND).
# [1] = condition (a): 20,000 cells/well, IBMX 200 μM
# [2] = condition (b): 10,000 cells/well, IBMX 200 μM
# [3] = condition (c): 7,500 cells/well, IBMX omitted
# T1 sequence (Q8WXD0 whole entry): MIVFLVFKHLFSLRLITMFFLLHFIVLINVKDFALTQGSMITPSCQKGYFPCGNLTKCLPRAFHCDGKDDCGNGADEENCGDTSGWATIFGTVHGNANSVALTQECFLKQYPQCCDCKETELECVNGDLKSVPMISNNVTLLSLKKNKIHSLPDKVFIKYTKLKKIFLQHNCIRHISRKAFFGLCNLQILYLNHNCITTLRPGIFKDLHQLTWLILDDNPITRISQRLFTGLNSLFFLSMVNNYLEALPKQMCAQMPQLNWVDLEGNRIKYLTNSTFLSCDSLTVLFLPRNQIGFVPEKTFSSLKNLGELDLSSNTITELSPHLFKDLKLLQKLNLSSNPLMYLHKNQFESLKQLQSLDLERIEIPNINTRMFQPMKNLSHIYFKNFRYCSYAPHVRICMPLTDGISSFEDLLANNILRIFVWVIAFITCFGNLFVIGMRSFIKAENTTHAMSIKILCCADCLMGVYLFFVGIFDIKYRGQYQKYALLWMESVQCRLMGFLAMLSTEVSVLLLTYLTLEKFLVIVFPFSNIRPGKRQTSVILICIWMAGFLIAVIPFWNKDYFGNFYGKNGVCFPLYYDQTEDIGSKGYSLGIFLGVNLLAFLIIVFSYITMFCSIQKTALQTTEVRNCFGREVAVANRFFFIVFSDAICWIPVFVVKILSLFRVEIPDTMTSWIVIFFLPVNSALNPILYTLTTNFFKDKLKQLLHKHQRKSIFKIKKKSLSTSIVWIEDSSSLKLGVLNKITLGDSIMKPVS
compound,measurement,setting,value
"O=C1Nc2ccc(-c3cccc(C(F)(F)F)c3)cc2C(=O)N2CCN(CCOc3ccccc3)CC12 (stereo not drawn) [Example 231, 2-(2-phenoxyethyl)-8-(3-(trifluoromethyl)phenyl)-1,3,4,12a-tetrahydrobenzo[e]pyrazino[1,2-a][1,4]diazepine-6,12 (2H, 11H)-dione]",% EFF vs. 1 nM INSL3 (a),[1],0.04%
"Cc1ccc(C(F)(F)F)cc1-c1ccc2c(c1)C(=O)N1CCN(C(=O)COc3ccc(C(F)(F)F)cc3Cl)C[C@H]1C(=O)N2 [Example 137, (S)-2-(2-(2-chloro-4-(trifluoromethyl)phenoxy)acetyl)-8-(2-methyl-5-(trifluoromethyl)phenyl)-1,3,4,12a-tetrahydrobenzo[e]pyrazino[1,2-a][1,4]diazepine-6,12 (2H, 11H)-dione]",% EFF vs. 1 nM INSL3 (b),[2],53.62%
"O=C1Nc2ccc(-c3cc(C(F)(F)F)ccc3F)cc2C(=O)N2CCN(C(=O)COc3ccc(C(F)(F)F)cc3Cl)C[C@@H]12 [Example 132, (S)-2-(2-(2-chloro-4-(trifluoromethyl)phenoxy)acetyl)-8-(2-fluoro-5-(trifluoromethyl)phenyl)-1,3,4,12a-tetrahydrobenzo[e]pyrazino[1,2-a][1,4]diazepine-6,12 (2H, 11H)-dione]",% EFF vs. 1 nM INSL3 (b),[2],68.09%
"O=C1Nc2ccc(-c3cc(O)cc(C(F)(F)F)c3F)cc2C(=O)N2CCN(C(=O)COc3ccc(OC(F)(F)F)cc3Br)C[C@@H]12 [Example 259, (S)-2-(2-(2-bromo-4-(trifluoromethoxy)phenoxy)acetyl)-8-(2-fluoro-5-hydroxy-3-(trifluoromethyl)phenyl)-1,3,4,12a-tetrahydrobenzo[e]pyrazino[1,2-a][1,4]diazepine-6,12 (2H, 11H)-dione]",pEC50,[3],7.21
same,% EFF vs. 100 nM INSL3 (c),[3],67.97%
"Cc1cc(OC(F)(F)F)ccc1OCC(=O)N1CCN2C(=O)c3cc(-c4cccc(C(F)(F)F)c4)ccc3NC(=O)[C@H]2C1 [Example 121, (R)-2-(2-(2-methyl-4-(trifluoromethoxy)phenoxy)acetyl)-8-(3-(trifluoromethyl)phenyl)-1,3,4,12a-tetrahydrobenzo[e]pyrazino[1,2-a][1,4]diazepine-6,12 (2H, 11H)-dione]",% EFF vs. 1 nM INSL3 (a),[1],28.28%
"O=C1Nc2ccc(-c3cc(C4CC4)cc(C(F)(F)F)c3)cc2C(=O)N2CCN(C(=O)COc3ccc(OC(F)(F)F)cc3I)C[C@@H]12 [Example 192, (S)-8-(3-cyclopropyl-5-(trifluoromethyl)phenyl)-2-(2-(2-iodo-4-(trifluoromethoxy)phenoxy)acetyl)-1,3,4,12a-tetrahydrobenzo[e]pyrazino[1,2-a][1,4]diazepine-6,12 (2H, 11H)-dione]",pEC50,[3],7.11
same,% EFF vs. 100 nM INSL3 (c),[3],77.31%
"O=C1Nc2ccc(-c3cc(C4CC4)cc(C(F)(F)F)c3)cc2C(=O)N2CCN(C(=O)COc3ccc(OC(F)(F)F)cc3Br)C[C@@H]12 [Example 191, (S)-2-(2-(2-bromo-4-(trifluoromethoxy)phenoxy)acetyl)-8-(3-cyclopropyl-5-(trifluoromethyl)phenyl)-1,3,4,12a-tetrahydrobenzo[e]pyrazino[1,2-a][1,4]diazepine-6,12 (2H, 11H)-dione]",pEC50,[3],6.72
same,% EFF vs. 100 nM INSL3 (c),[3],66.75%
"Cc1cc(OC(F)(F)F)ccc1OCC(=O)N1CCN2C(=O)c3cc(-c4cncc(C(F)(F)F)c4)ccc3NC(=O)C2C1 (stereo not drawn) [Example 41, 2-(2-(2-methyl-4-(trifluoromethoxy)phenoxy)acetyl)-8-(5-(trifluoromethyl)pyridin-3-yl)-1,3,4,12a-tetrahydrobenzo[e]pyrazino[1,2-a][1,4]diazepine-6,12 (2H, 11H)-dione]",% EFF vs. 1 nM INSL3 (b),[2],33.78%
"COc1cc(OC(F)(F)F)ccc1OCC(=O)N1CCN2C(=O)c3cc(-c4cc(C(F)(F)F)cc(C(F)(F)F)c4)ccc3NC(=O)[C@@H]2C1 [Example 185, (S)-8-(3,5-bis(trifluoromethyl)phenyl)-2-(2-(2-methoxy-4-(trifluoromethoxy)phenoxy)acetyl)-1,3,4,12a-tetrahydrobenzo[e]pyrazino[1,2-a][1,4]diazepine-6,12 (2H, 11H)-dione]",pEC50,[3],6.34
same,% EFF vs. 100 nM INSL3 (c),[3],63.16%
"O=C1Nc2ccc(-c3cc(C(F)(F)F)cc(C(F)(F)F)c3)cc2CN2CCN(C(=O)COc3ccc(OC(F)(F)F)cc3I)C[C@@H]12 [Example 254, (S)-8-(3,5-bis(trifluoromethyl)phenyl)-2-(2-(2-iodo-4-(trifluoromethoxy)phenoxy)acetyl)-1,3,4,6,11,12a-hexahydrobenzo[e]pyrazino[1,2-a][1,4]diazepin-12 (2H)-one]",pEC50,[3],5.07
same,% EFF vs. 100 nM INSL3 (c),[3],49.35%
"Cc1cc(OC(F)(F)F)ccc1OCC(=O)N1CCN2C(=O)c3cc(-c4cccc(C(F)(F)F)n4)ccc3NC(=O)C2C1 (stereo not drawn) [Example 108, 2-(2-(2-methyl-4-(trifluoromethoxy)phenoxy)-acetyl)-8-(6-(trifluoromethyl)pyridin-2-yl)-1,3,4,12a-tetrahydrobenzo[e]pyrazino[1,2-a][1,4]diazepine-6,12 (2H, 11H)-dione]",% EFF vs. 1 nM INSL3 (b),[2],38.19%
"O=C1Nc2ccc(-c3cccc(C(F)(F)F)c3)cc2C(=O)N2CCN(C(=O)COc3ccc(OC(F)F)cc3F)CC12 (stereo not drawn) [Example 55, 2-(2-(4-(difluoromethoxy)-2-fluorophenoxy)acetyl)-8-(3-(trifluoromethyl)phenyl)-1,3,4,12a-tetrahydrobenzo[e]pyrazino[1,2-a][1,4]diazepine-6,12 (2H, 11H)-dione]",pEC50,[1],7.23 to 7.61
same,% EFF vs. 1 nM INSL3 (a),[1],20.07-42.35%
"N#Cc1cc(-c2ccc3c(c2)C(=O)N2CCN(C(=O)COc4ccc(OC(F)(F)F)cc4Cl)CC2C(=O)N3)cc(C(F)(F)F)c1 (racemic) [Example 106, 3-(2-(2-(2-chloro-4-(trifluoromethoxy)phenoxy)acetyl)-6,12-dioxo-1,2,3,4,6,11,12,12a-octahydrobenzo[e]pyrazino[1,2-a]1[1,4]diazepin-8-yl)-5-(trifluoromethyl)benzonitrile]",pEC50,[2],7.50
same,% EFF vs. 1 nM INSL3 (b),[2],50.30%
"Cc1cc(OC(F)(F)F)ccc1OCC(=O)N1CCN2C(=O)c3cc(-c4ccnc(C(F)(F)F)c4)ccc3NC(=O)C2C1 (stereo not drawn) [Example 40, 2-(2-(2-methyl-4-(trifluoromethoxy)phenoxy)acetyl)-8-(2-(trifluoromethyl)pyridin-4-yl)-1,3,4,12a-tetrahydrobenzo[e]pyrazino[1,2-a][1,4]diazepine-6,12 (2H, 11H)-dione]",% EFF vs. 1 nM INSL3 (b),[2],47.69%
"Cc1cc(OC(F)F)ccc1OCC(=O)N1CCN2C(=O)c3cc(-c4cc(C(F)(F)F)cc(C(F)(F)F)c4)ccc3NC(=O)[C@@H]2C1 [Example 167, (S)-2-(2-(4-(difluoromethoxy)-2-methylphenoxy)acetyl)-8-(3-(trifluoromethyl)-5-(trifluoromethyl)phenyl)-1,3,4,12a-tetrahydrobenzo[e]pyrazino[1,2-a][1,4]diazepine-6,12 (2H, 11H)-dione]",pEC50,[2],6.85
same,% EFF vs. 1 nM INSL3 (b),[2],113.26%
"O=C1Nc2ccc(-c3cc(Cl)cc(C(F)(F)F)c3)cc2C(=O)N2CCN(C(=O)COc3ccc(OC(F)(F)F)cc3Br)C[C@@H]12 [Example 162, (S)-2-(2-(2-Bromo-4-(trifluoromethoxy)phenoxy)acetyl)-8-(3-chloro-5-(trifluoromethyl)phenyl)-1,3,4,12a-tetrahydrobenzo[e]pyrazino[1,2-a][1,4]diazepine-6,12 (2H, 11H)-dione]",pEC50,[2],6.92
same,% EFF vs. 1 nM INSL3 (b),[2],130.93%
"Cc1cc(OC(F)(F)F)ccc1OCC(=O)N1CCN2C(=O)c3cc(-c4cc(F)cc(C(F)(F)F)c4)ccc3NC(=O)[C@@H]2C1 [Example 141, (S)-8-(3-fluoro-5-(trifluoromethyl)phenyl)-2-(2-(2-methyl-4-(trifluoromethoxy)phenoxy)acetyl)-1,3,4,12a-tetrahydrobenzo[e]pyrazino[1,2-a][1,4]diazepine-6,12 (2H, 11H)-dione]",pEC50,[2],7.26 to 7.44
same,% EFF vs. 1 nM INSL3 (b),[2],95.53-115.85%
"O=C1Nc2ccc(-c3cc(C(F)(F)F)ccc3F)cc2C(=O)N2CCN(C(=O)COc3ccc(OC(F)(F)F)cc3Cl)C[C@@H]12 [Example 127, (S)-2-(2-(2-chloro-4-(trifluoromethoxy)phenoxy)acetyl)-8-(2-fluoro-5-(trifluoromethyl)phenyl)-1,3,4,12a-tetrahydrobenzo[e]pyrazino[1,2-a][1,4]diazepine-6,12 (2H, 11H)-dione]",pEC50,[2],7.92
same,% EFF vs. 1 nM INSL3 (b),[2],84.99%
"Cc1cc(-c2ccc3c(c2)C(=O)N2CCN(C(=O)COc4ccc(OC(F)F)cc4C)C[C@H]2C(=O)N3)cc(C(F)(F)F)c1 [Example 168, (S)-2-(2-(4-(Difluoromethoxy)-2-methylphenoxy)acetyl)-8-(3-methyl-5-(trifluoromethyl)phenyl)-1,3,4,12a-tetrahydrobenzo[e]pyrazino[1,2-a][1,4]diazepine-6,12 (2H, 11H)-dione]",% EFF vs. 1 nM INSL3 (b),[2],131.20%
